Like-named read-outs stand apart in the source and are kept apart here.
Experiments:
[1] = tested on: whiteleg shrimps (Litopenaeus vannamei)
Description: Water quality parameters, including salinity, dissolved oxygen, pH and total ammonia nitrogen (TAN) were monitored regularly in both control and treated ponds. The growth rate of the shrimps was monitored regularly. Total number was counted and mean body weight of shrimp was measured. Based on recording the weight of shrimp and counting the number of shrimps, weight gain, feed conversion ratio (FCR) and survival were calculated.

[2] = tested on: Pacific Whiteleg shrimp (Litopenaeus vannamei)
Description: An 8-week growth trial study on Pacific Whiteleg shrimp (Litopenaeus vannamei) (1.0 g/shrimp) in duplicate was conducted in a 3,200 m2 earthen pond (100,000 shrimps per 1,600 m2) at the GAP certified private shrimp farm, Nakhon Pathom province, Thailand. […] The pond size was 2 Rai (1 Rai is 1,600 m^2). Stocking density is 100,000 shrimps/1 Rai.
Shrimp were fed by automatic feeder four times a day according to the farming standard. […] The bespoke shrimp feed specification was Crude Protein 38%, Crude Fat 7%, and diet pellet sizes of 1.5 mm; 2.0 mm; 2.5 mm that were assigned across the trial period to optimise maximum intake.

[3] = tested on: whiteleg shrimps; details: applied once or twice a day, 6 ponds
[4] = tested on: Pangasius hypophthalmus; assay: Experiment 7C: pond trial on Pangasius in Bangladesh; type: in vivo; details: overall results of the 8 ponds
From the text: Pangas belonging to the genus of medium-large catfishes, is a relatively new and fast-growing fish species that has great potential for production and export growth in Bangladesh. Polyculture of pangasius (P. hypophthalmus) with carps is the existing culture practice along with monoculture being practiced by many households in Bangladesh.
Trials have been done in 2019 in Mymensingh region on 4 ponds with an average of 1,4 ha and an average depth of 1.5 m in the dry season and 2 m. in the rainy season (May to November). For feeding standard commercial pelleted feeds were used.

[5] = tested on: Tiger shrimps (Penaeus monodon); details: three ponds, applied after each change of water every 5 days
Description: Tiger shrimps (Penaeus monodon), also named giant tiger prawn, asian tiger prawn or black tiger shrimp, is one of the most popular cultured shrimp species in the world.
A small scale trial was carried out in 2019 in Chittagong-Bangladesh in three ponds of +2.5 ha.

[6] = tested on: whiteleg shrimps
[7] = tested on: trypsin gene; details: hepatopancreas, after 56 days, versus control, FIG. 2
Description: At the end of the grow-out period, shrimp were sampled for the growth and feed utilisation metrics. Water quality parameters were measured three times daily. At the end of the trial, shrimps were assessed for the growth performance as described below. Shrimp from each treatment group were examined and the hepato-pancreas removed carefully from 10 individual animals and processed as described below.
For RNA extraction, hepatopancreases were extracted by using trizol reagent (Invitrogen, USA). Briefly, 1 ml of trizol reagent were added into 50-100 mg of tissue samples. then, the samples were homogenized at 3,500 rpm for 1 min by using Micro Smash MS-100R (TOMY, Japan). After incubated sample at RT for 5 min, 200 μl of chloroform were added and mixed vigorous. The samples were centrifuged at 12,000 rpm at 4° C. for 15 min. after collected supernatant into new 1.5 ml tube, 1 volume of isopropanol were added and incubated at −20° C. for 2 h or O/N. Next, RNA pellets were collected by centrifuged at 12,000 rpm at 4° C. for 15 min. then, the pellets were washed with 500 μl of 75% ethanol and dried pellet at 65° C. Lastly, 30 μl of RNase free water was added for dissolved RNA pellet. RNA concentration was measured by using nanodrop spectrophotometer (Thermo Fisher Scientific, USA).

[8] = tested on: whiteleg shrimp
From the text: Trials are done in Northern part, Central part and Southern part in Vietnam, 2020-2021.

[9] = tested on: whiteleg shrimps; remark: listed apart in the source
From the text: In […] further experiments were done in Gujarat-India on whiteleg shrimps.

[10] = tested on: α-amylase gene; details: hepatopancreas, after 56 days, versus control, FIG. 2
Description: For RNA extraction, hepatopancreases were extracted by using trizol reagent (Invitrogen, USA). Briefly, 1 ml of trizol reagent were added into 50-100 mg of tissue samples. then, the samples were homogenized at 3,500 rpm for 1 min by using Micro Smash MS-100R (TOMY, Japan). After incubated sample at RT for 5 min, 200 μl of chloroform were added and mixed vigorous. The samples were centrifuged at 12,000 rpm at 4° C. for 15 min. after collected supernatant into new 1.5 ml tube, 1 volume of isopropanol were added and incubated at −20° C. for 2 h or O/N. Next, RNA pellets were collected by centrifuged at 12,000 rpm at 4° C. for 15 min. then, the pellets were washed with 500 μl of 75% ethanol and dried pellet at 65° C. Lastly, 30 μl of RNase free water was added for dissolved RNA pellet. RNA concentration was measured by using nanodrop spectrophotometer (Thermo Fisher Scientific, USA). […]
Real-time PCR was used to detected growth genes in shrimp.
Reaction mixture for real-time PCR was composed of 1 μl of 100 cDNA, 5 μl of 2× qPCRBIO SyGreen mix, forward and reverse primer at final concentration 0.2 μM and adjusted volume up to 10 μl by nuclease free water. […] The relative fold gene expression level was calculated by using the formula below: […]

[11] = all testing locations in Vietnam, 2020-2021

## silicic acid [bioavailable silicic acid compound]
[1]; first experiments, 2017, brackish ponds, Gujarat
  average weight gain of the shrimps compared to control pond: 26%
[1]; second trial
  increase (average weight gain) compared to control: 17.5%
[2]; 8-weeks growth trial, FIG. 1 (control 9.48)
  average (mean) weight of shrimp at end of trial: 12.49 g
[2]; 8 weeks, with silicic acid
  Apparent net protein utilization (%): 36.4 ± 1.4 ^A %
  Average daily gain: 0.12 ± 0.02 g/day
  Feed conversion ratio: 1.18 ± 0.05 ^A
  Final weight (g/shrimp): 12.49 ± 2.46 g/shrimp
  Specific growth rate (%/day): 3.21 ± 0.20 ^A %/day
  Survival rate (%): 69.8 ± 4.5 ^A %
  Total biomass (kg of harvested shrimp): 1,047 ± 208.25 ^A kg
[2]; exposed for 8 weeks
  shrimp performance under pond rearing conditions: significantly better
[3]
  overall increase of the yield: 19%
[4]; both treatments pooled
  increase of overall yield: 16.6%
[4]; both treatments pooled (from 11.400 kg/ha/year)
  overall yield: 13.300 kg/ha/year
[5]
  overall yield increase (compared to control): 18.4%
[6]; 4 ponds, application every 3 days, brackish water
  average yield increase of shrimps: 24.27%
[6]; average of treated ponds (control ponds 1.5)
  feed conversion rate (FCR): 1.37
[7]
  trypsin gene expression relative to housekeeping gene: down regulation
[8]; Central Vietnam
  environment, growth, survival, and energy efficiency of shrimp production: remarkably good results
[8]; [11]
  higher yields (average): 18.7%
  larger shrimps (average): 14%
[9]; 8 ponds, 1.5 liters of 2.5% product every 15 days, compared to control
  average yield increase of shrimps: 18.3%
[9]; average of treated ponds (control ponds 1.52)
  food conversion rate (FCR): 1.45
[10]
  α-amylase gene expression relative to housekeeping gene: down regulation

— US20240224953A1 (Barlaa B.V., priority 2021, published 2024)
